# Tested on: brown rats, Rattus norvegicus
# Assay: Laboratory arena with two trap boxes: behavioral responses of rats (first entry, time spent)
# Type: in vivo
# Excerpt: A laboratory experimental apparatus was constructed to test the behavioral responses of rats to the compositions described herein. The experimental design is depicted in FIG. 1 and includes a circular galvanized steel arena (200 cm×60 cm) illuminated from above by a 7.5-W red bulb (Halco Lighting Technologies, Norcross, Ga. 30071, USA) to facilitate observations of the position of the rat within the steel arena. Two metal trap boxes (3a, 3b) (each 25 cm×20 cm×12 cm; T. Eaton & Co. Inc., Twinsburg, Ohio 44087, USA) were placed in opposite quadrants of the arena (1) 10 cm from the wall to serve as harborage. Each box (3a, 3b) was fitted with a Petri dish (3 cm) containing a Whatman #1 filter paper disk (25 mm diam; Sigma-Aldrich Canada Co. Oakville, On L6H 6J8) treated with a randomly assigned treatment or control stimulus. Individual rats were released from a gated mesh and sheet metal box (2) (25 cm×15 cm×15 cm) positioned equidistant to each of the two metal trap boxes (3a, 3b).
# For each experimental replicate, a single rat was removed from its “home” cage, and placed into the gated mesh- and sheet-metal container (2). After a 10-min acclimation period, the gate was raised, allowing the rat to leave the box (2) on its own accord and to explore the arena (1) and the trap boxes (3a, 3b).
# A rat was classed a responder if it entered a trap box (3a, 3b). For each responding rat, two criteria were recorded and analyzed: 1) the trap box (3a, 3b) it entered first (“first entry”), and 2) the time it spent in the arena quadrants associated with a trap box (“time spent”). The latter data were obtained by recording the rat's position in any one of the four arena quadrants at each of 30 1-min intervals. Following each replicate, the arena and trap boxes were cleaned with a Percept™ disinfectant detergent (Virox Technologies Inc. Mississaugua ON L5N 5M4, Canada) and were wiped with a pet urine odor remover (Nature's Miracle®, Spectrum Brands Inc., Blacksburg, Va. 24060-6671, USA).
# First-choice data and the time spent in a trap box quadrant were analyzed using a χ^2 test with Yates' correction for continuity (α=0.05) and the Student's t-test (α=0.05), respectively.
# In Experiments 1 and 2, the laboratory experimental design of FIG. 1 was used to evaluate the responses of male and female rats to synthetic androstenone. For Experiments 1 and 2, the treatment stimulus consisted of filter paper sprayed with 2 ml of an aqueous microemulsion containing 4 μg of synthetic androstenone and a control stimulus which consisted of untreated filter paper. The treatment stimulus and control stimulus were placed in the trap boxes (3a, 3b). Experiment 1 tested the response of male rats and Experiment 2 tested the response of female rats.
# In Experiments 3 and 4, the laboratory experimental design of FIG. 1 was used to evaluate the responses of male and female rats to synthetic progesterone and estrogen. For Experiments 3 and 4, the treatment stimulus consisted of filter paper impregnated with a 4-μg blend of the synthetic hormones progesterone and estrogen formulated in 50 μl of ether at a ratio of either 100:1 (Experiment 3) or 1000:1 (Experiment 4). The control stimulus in each of Experiments 3 and 4 consisted of filter paper impregnated with 50 μl of ether.
# Experiment 14 used the laboratory experimental apparatus of FIG. 1 to test choices of female rats between a treatment stimulus consisting of filter paper treated with 150 ng of synthetic testosterone formulated in 50 μl of ether and a control stimulus consisting of filter paper treated with 50 μl of ether.
# [1] = Experiment 1, male rats, 4 μg synthetic androstenone
# [2] = Experiment 2, female rats, 4 μg synthetic androstenone
# [3] = Experiment 14, female rats, 150 ng synthetic testosterone
Compound,first entry into treatment trap box vs control trap box [1],time spent in quadrants associated with stimulus vs opposite control quadrants [1],"attractive effect on male rats (Experiment 1, male rats, 4 μg synthetic androstenone on filter paper vs untreated filter paper)",first entry into treatment trap box vs control trap box [2],time spent in quadrants associated with treatment stimulus vs opposite control quadrants [2],"attractive effect on female rats (Experiment 2, female rats, 4 μg synthetic androstenone on filter paper vs untreated filter paper)",first entry into baited trap box vs control trap box [3],time spent in arena quadrant of baited trap box vs opposite control quadrant [3],"attractant effect on female rats (Experiment 14, female rats, 150 ng synthetic testosterone in 50 μl ether vs ether)"
"C[C@]12CCC(=O)C[C@@H]1CC[C@@H]1[C@@H]2CC[C@]2(C)C=CC[C@@H]12 [androstenone, 5α-androst-16-en-3-one]",as often as,significantly less time,no observed attractive effect,significantly more often,significantly more time,very attractive effect,–,–,–
"C[C@]12CC[C@H]3[C@@H](CCC4=CC(=O)CC[C@@]43C)[C@@H]1CC[C@@H]2O [testosterone, (8R,9S,10R,13S,14S,17S)-17-hydroxy-10,13-dimethyl-1,2,6,7,8,9,11,12,14,15,16,17-dodecahydrocyclopenta[a]phenanthren-3-one, reference compound]",–,–,–,–,–,–,significantly more often,significantly more time,very positive attractant effect

# From patent publication US11185077B2, “Attractants for rodents” (priority 2016, dated 2021)
